In US6699849B1, “Cyclodextrin complexes of benzodiazepines” (Cyclops, ehf., priority 1998, dated 2004):
In brackets after ≈: the same amount, converted by molar mass. Read-outs that look alike come from different tables or passages of the source.

What was measured:
[1] = format: physicochemical
Text: It is possible to enhance the cyclodextrin (CD) complexation efficacy, or efficiency, of drugs (D), and other “guest” molecules, by either increasing the apparent stability constant (KC) of the drug-cyclodextrin complex (D-CD) or increasing the apparent intrinsic solubility (S0) of the drug. For example, KC can be increased by addition of water-soluble polymers to the aqueous complexation media and S0 can be increased by ionization of the drug molecule, as described previously. […] On the other hand, if the drug-cyclodextrin complexes are prepared under conditions which ensure enhanced complexation and if the complexation efficiency decreases upon administration, then enhanced drug availability will be observed. Thus, the present invention involves: i) enhancement of the complexation efficiency and ii) reduction of the complexation efficiency after administration. For example, it is possible to enhance the complexation efficiency of many ionizable drugs by preparing the complexes at a pH where the drug is ionized but obtain decreased efficiency upon administration due to pH changes and consequent decreased ionization. One example of such a drug is phenytoin (pKa 8.1). […]

[2] = cited from earlier work; for solubility in water: room temperature (25° C.)
[3] = cited from earlier work
[4] = Transdermal delivery of enalaprilat from 10% (w/v) HPβCD solutions, effect of heating with polymers; format: in vitro ADME; conditions: for Flux Ratio (heated/un-heated): donor phase HPβCD, pH 5.0
Text: It is possible to enhance the cyclodextrin (CD) complexation efficacy, or efficiency, of drugs (D), and other “guest” molecules, by either increasing the apparent stability constant (KC) of the drug-cyclodextrin complex (D-CD) or increasing the apparent intrinsic solubility (S0) of the drug. For example, KC can be increased by addition of water-soluble polymers to the aqueous complexation media and S0 can be increased by ionization of the drug molecule, as described previously. […] On the other hand, if the drug-cyclodextrin complexes are prepared under conditions which ensure enhanced complexation and if the complexation efficiency decreases upon administration, then enhanced drug availability will be observed. Thus, the present invention involves: i) enhancement of the complexation efficiency and ii) reduction of the complexation efficiency after administration. For example, it is possible to enhance the complexation efficiency of many ionizable drugs by preparing the complexes at a pH where the drug is ionized but obtain decreased efficiency upon administration due to pH changes and consequent decreased ionization. One example of such a drug is phenytoin (pKa 8.1). […] However, if the pH 8.0 solution was placed in an environment which would decrease the pH from 8 to 5 (e.g. topical application to the skin), then a supersaturated solution would be formed which would result in enhanced drug availability (e.g. it would result in enhanced transdermal drug delivery). Other means to enhance S0 include reversible derivation (e.g. prodrug formation) of the guest molecule and addition of certain low molecular weight acids. The value of KC can, for example, be increased by addition of certain low molecular weight acids, by addition of water-soluble polymers to the aqueous complexation media or by using mixed solvent systems such as aqueous 10% (v/v) acetic acid. […] The effect of the polymers on the transdermal delivery of enalaprilat can, at least partly, be explained by decreased complexation efficiency (i.e. decrease in KC) at the skin surface.

O=C1NC(=O)C(c2ccccc2)(c2ccccc2)N1 [phenytoin, 5,5-diphenyl-2,4-imidazolidinedione]
solubility enhancement by 25% (w/v) 2-hydroxypropyl-β-cyclodextrin ([1]; pH 5): 280 fold
solubility enhancement by 25% (w/v) 2-hydroxypropyl-β-cyclodextrin ([1]; pH 8): 200 fold
solubility with 25% (w/v) 2-hydroxypropyl-β-cyclodextrin ([2]; pH 5): 5000 µg/mL
solubility with 25% (w/v) 2-hydroxypropyl-β-cyclodextrin ([2]; pH 8): 6400 µg/mL
solubility in water ([2]; pH 5): 18 µg/mL (≈ 71.4 µM)
solubility in water ([2]; pH 8): 32 µg/mL (≈ 127 µM)
pKa [3]: 8.1

C[C@H](N[C@@H](CCc1ccccc1)C(=O)O)C(=O)N1CCC[C@H]1C(=O)O [enalaprilat]
Flux Ratio (heated/un-heated) ([4]; 0.10% HPMC): 2.6
Flux Ratio (heated/un-heated) ([4]; 0.25% PVP): 1.4
effect of polymers on transdermal delivery ([4]; polymers added to unheated vehicles): did not enhance
effect of polymers on transdermal delivery ([4]; vehicles heated after addition of the polymers): significant enhancement
